For 4 compounds, inhibition and Kd results are on record in article PMC9190014, “Structure, dynamics, and molecular inhibition of the Staphylococcus aureus m^1A22-tRNA methyltransferase TrmK” (The Journal of Biological Chemistry, 2022).

Like-named read-outs stand apart in the source and are kept apart here.

The target of assay [1] is T1, m1A22-tRNA methyltransferase TrmK (SaTrmK) (Staphylococcus aureus, UniProt Q2FY13).
T1 construct: gene SAOUHSC_01661; recombinant SaTrmK, His-tag cleaved by TEVP, N-terminal glycine residue left
T1 sequence (Q2FY13 entry or part of it): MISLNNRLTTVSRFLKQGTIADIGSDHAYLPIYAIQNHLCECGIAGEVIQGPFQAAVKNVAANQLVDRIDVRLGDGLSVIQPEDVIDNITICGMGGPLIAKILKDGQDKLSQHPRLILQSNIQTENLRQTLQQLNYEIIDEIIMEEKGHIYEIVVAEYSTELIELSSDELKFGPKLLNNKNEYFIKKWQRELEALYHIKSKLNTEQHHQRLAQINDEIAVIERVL
Put plainly: MTase-Glo methyltransferase assay with tRNA-Leu, single concentration. The assay is classed as biochemical.

In assay [2] the target is T1, m1A22-tRNA methyltransferase TrmK (SaTrmK). Description: ITC; co-crystal structure at […] Å; DSF. In kind it is binding. Background: Isothermal titration calorimetry measures the heat released or taken up as one component is titrated into another.
The target is the same in assay [3]. Put plainly: ITC; co-crystal structure at […] Å; DSF. The assay is classed as binding. This is another data set of the same source.
For assay [4] the target is unchanged. Put plainly: intact-mass ESI-MS and LC-MS/MS peptide mapping of covalent adduct; MTase-Glo inhibition assay. In kind it is binding.

One may read the inhibition as the change of the read-out against control, counted positive when it falls. `Nc1ncnc2c1ncn2[C@@H]1O[C@H](C[C@@H](N)CC[C@H](N)C(=O)O)[C@@H](O)[C@H]1O` [sinefungin] came in with an inhibition at 10 µM in assay [1] of about 98%. The Kd is the constant that tells how readily two partners part at equilibrium. A higher Kd goes with lower affinity. `Nc1ncnc2c1ncn2[C@@H]1O[C@H](CSCC[C@H](N)C(=O)O)[C@@H](O)[C@H]1O` [SAH]: the dissociation constant (Kd) in assay [2] worked out at 940 ± 50 nM. Compound `C[S@@+](CC[C@H](N)C(=O)O)C[C@H]1O[C@@H](n2cnc3c(N)ncnc32)[C@H](O)[C@@H]1O` [SAM] had a dissociation constant Kd in assay [3] of 39 ± 4 µM. In assay [4], `CC1=CC(=O)c2c(O)cccc2C1=O` [plumbagin, 5-hydroxy-2-methyl-1,4-naphtoquinone] returned an inhibition at 5 µM of about 93%.
